Measurements taken from patent publication US20150368692A1, “ANALYSIS OF THE ESTERIFICATION LEVEL OF CEREBROSTEROL AS A TOOL FOR DIAGNOSIS AND/OR PROGNOSIS OF NEURODEGENERATION” (INBIOS S.R.L., priority 2013, published 2015).
One block for each molecule: values may come before it.

What was measured:
[1] = system: SH-SY5Y neuronal cells (neuroblastoma line), differentiated with retinoic acid; experiment: Survival of differentiated SH-SY5Y neuronal cells (Crystal Violet staining, absorbance at 595 nm); type: cell-based, human; conditions: for cells survived after incubation: 5 h at 37° C./5% CO2 in DMEM and 0.5% HSA, then 16 h in fresh medium
Procedure: FIG. 2. Box A. Cells from the SH-SY5Y cell line were differentiated by incubation with 10 μM of retinoic acid in DMEM containing 0.5% foetal bovine serum, 1% Pen-Strep, 1% L-glutamine, 1% of a mixture of factors known as “N2 medium supplement”, essentially in accordance with a published procedure. The incubation was performed for 3 days at 37° C. in an atmosphere containing 5% CO2 (37° C./5% CO2). 7×10^3 cells were laid in each well of a microplate and then challenged with different concentrations of 24(S)OH—CNE and finally analysed in order to evaluate the survival of the cells, as described in Example 1. Each sample was analysed in three separate experiments. The data are expressed as means±SD (SD=standard deviation). Box B. 20 μM^3H-24(S)OH—CNE (300,000 dpm/mL) was incubated with 250 ng/mL purified LCAT and proteoliposomes containing 2 μM ApoA-I and 266 μM phosphatidylcholine (ApoA-I/PC) in DMEM with 0.5% HSA for various periods of time (from 1 to 6 h) at 37° C./5% CO2. After incubation, the esterified and non-esterified forms of oxysterol were extracted and analysed as described in Example 1. The level of esterification is indicated in terms of percentage of ^3H-24(S)OH-CE. Each sample was analysed in three separate experiments. The data are expressed as means±SD. Box C. Differentiated cells, as in the key of box A, were challenged with 20 μM ^3H-24(S)OH—CNE (300,000 dpm/mL) previously treated or untreated, as described for box B, with LCAT and ApoA-I/PC for 5 h. […] The culture medium was analysed in order to measure any unincorporated radioactive material, whereas the lysate was analysed in order to measure any incorporated radioactive material (expressed as % of the sum of incorporated radioactive material plus unincorporated radioactive material). […] Each sample was analysed in three separate experiments. The data are expressed as means±SD.
FIG. 3. […] Cellular survival after 5 h of incubation at 37° C./5% CO2, was evaluated as described in Example 1. Each sample was analysed in three separate experiments. The data are expressed as means±SD. […]

LCAT [2] = target: T1, LCAT (Homo sapiens, UniProt P04180); experiment: Activity of LCAT in esterifying 3H-24(S)OH-CNE after oxidative treatment of the enzyme; type: biochemical; conditions: 1 mM SIN-1 as oxidant, 20 min pre-incubation, stopped with antioxidant mixture; 2 μM ApoA-I/266 μM phosphatidylcholine; control 19.11±0.49; P=2.4×10^−3
T1 sequence (P04180 25-440): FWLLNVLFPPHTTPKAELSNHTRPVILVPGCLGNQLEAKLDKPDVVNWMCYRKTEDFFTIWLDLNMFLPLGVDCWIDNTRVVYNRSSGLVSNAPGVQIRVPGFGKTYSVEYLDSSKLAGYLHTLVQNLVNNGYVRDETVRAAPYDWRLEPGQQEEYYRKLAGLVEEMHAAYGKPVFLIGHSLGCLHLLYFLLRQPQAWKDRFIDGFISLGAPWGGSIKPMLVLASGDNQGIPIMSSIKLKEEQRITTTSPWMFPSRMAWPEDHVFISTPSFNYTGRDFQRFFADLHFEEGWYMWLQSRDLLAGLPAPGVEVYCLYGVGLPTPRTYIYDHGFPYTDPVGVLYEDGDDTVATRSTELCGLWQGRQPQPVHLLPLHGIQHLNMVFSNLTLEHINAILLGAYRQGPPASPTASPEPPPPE
Procedure: FIG. 5. An outline of the process to which three samples have been subjected is shown at the top. At the bottom, the components of each sample are shown in a table. […] Purified LCAT (250 ng/mL) was pre-incubated and added to the culture medium for cellular incubation (containing ApoA-I/PC) as indicated in the table at the bottom. 1 mM Asc was used to separate the pre-incubation from the incubation in the processes to which the samples were subjected. Each sample was analysed in three separate experiments. The data, expressed as means±SD, were analysed using the Graph Pad Prism 3 program (Graph Pad Software; San Diego, Calif., USA) in order to determine the significance of the difference of B from A and C (P=10^−5).
The purified enzyme LCAT was treated with an oxidative stress system and was then incubated with 24(S)OH—CNE in order to evaluate the efficiency of esterification of this oxysterol. […] The measurement of the absorbance of ABTS^[…]+ (at 414 nm) […], at 30° C., oxidative species which effectively oxidise ABTS and that the addition of 1 mM Asc to the mixture prevents or blocks oxidation of the target. […]

LCAT [3] = target: T1, LCAT; experiment: Esterification of 3H-24(S)OH-CNE by purified LCAT with ApoA-I/PC proteoliposomes (TLC, liquid scintillation); type: biochemical; conditions: 20 μM substrate, 250 ng/mL LCAT, proteoliposomes 2 μM ApoA-I/266 μM phosphatidylcholine, 5 h pre-incubation at 37° C./5% CO2
Procedure: FIG. 2. Box A. Cells from the SH-SY5Y cell line were differentiated by incubation with 10 μM of retinoic acid in DMEM containing 0.5% foetal bovine serum, 1% Pen-Strep, 1% L-glutamine, 1% of a mixture of factors known as “N2 medium supplement”, essentially in accordance with a published procedure. The incubation was performed for 3 days at 37° C. in an atmosphere containing 5% CO2 (37° C./5% CO2). 7×10^3 cells were laid in each well of a microplate and then challenged with different concentrations of 24(S)OH—CNE and finally analysed in order to evaluate the survival of the cells, as described in Example 1. Each sample was analysed in three separate experiments. The data are expressed as means±SD (SD=standard deviation). […] After incubation, the esterified and non-esterified forms of oxysterol were extracted and analysed as described in Example 1. […] Each sample was analysed in three separate experiments. The data are expressed as means±SD. […] The culture medium was analysed in order to measure any unincorporated radioactive material, whereas the lysate was analysed in order to measure any incorporated radioactive material (expressed as % of the sum of incorporated radioactive material plus unincorporated radioactive material). […] Each sample was analysed in three separate experiments. The data are expressed as means±SD. […]

[4] = system: SH-SY5Y neuronal cells (neuroblastoma line), differentiated with retinoic acid; experiment: Incorporation of 3H-24(S)OH-CNE in differentiated SH-SY5Y cells and its esterification in the cells; type: cell-based, human; conditions: 4 h of incubation; for 3H-24(S)OH-CNE incorporated in the cultured cells: 20 μM
Procedure: FIG. 2. Box A. Cells from the SH-SY5Y cell line were differentiated by incubation with 10 μM of retinoic acid in DMEM containing 0.5% foetal bovine serum, 1% Pen-Strep, 1% L-glutamine, 1% of a mixture of factors known as “N2 medium supplement”, essentially in accordance with a published procedure. The incubation was performed for 3 days at 37° C. in an atmosphere containing 5% CO2 (37° C./5% CO2). 7×10^3 cells were laid in each well of a microplate and then challenged with different concentrations of 24(S)OH—CNE and finally analysed in order to evaluate the survival of the cells, as described in Example 1. Each sample was analysed in three separate experiments. The data are expressed as means±SD (SD=standard deviation). Box B. 20 μM^3H-24(S)OH—CNE (300,000 dpm/mL) was incubated with 250 ng/mL purified LCAT and proteoliposomes containing 2 μM ApoA-I and 266 μM phosphatidylcholine (ApoA-I/PC) in DMEM with 0.5% HSA for various periods of time (from 1 to 6 h) at 37° C./5% CO2. After incubation, the esterified and non-esterified forms of oxysterol were extracted and analysed as described in Example 1. The level of esterification is indicated in terms of percentage of ^3H-24(S)OH-CE. Each sample was analysed in three separate experiments. The data are expressed as means±SD. Box C. Differentiated cells, as in the key of box A, were challenged with 20 μM ^3H-24(S)OH—CNE (300,000 dpm/mL) previously treated or untreated, as described for box B, with LCAT and ApoA-I/PC for 5 h. After various incubation times (from 1 to 6 h), the cells were separated from the culture medium and lysed. The culture medium was analysed in order to measure any unincorporated radioactive material, whereas the lysate was analysed in order to measure any incorporated radioactive material (expressed as % of the sum of incorporated radioactive material plus unincorporated radioactive material). […] Each sample was analysed in three separate experiments. The data are expressed as means±SD.
In Step 1B, 20 μM of ^3H-24(S)OH—CNE (300,000 dpm/mL) was pre-incubated in culture medium (DMEM containing 0.5% HSA) in the presence or absence of 250 ng/mL LCAT, purified in accordance with a published procedure, and proteoliposomes containing ApoA-I and phosphatidylcholine (ApoA-I/PC), prepared in accordance with a published procedure omitting cholesterol. […] In particular, the amount of esterified ^3H-24(S)OH—CNE (that is to say ^3H-24(S)OH-CE) was measured as detailed hereinafter. […] The stationary phase regions harbouring ^3H-24(S)OH-CE (Rf=0.70-0.75) and ^3H-24(S)OH—CNE (Rf=0.25-0.35) were separately removed and then analysed for the radioactivity content thereof by liquid scintillation using the Packard TriCarb 2100TR counter (Global Medical Instrumentation, Ramsey, Mich., USA). […]

[5] = medium pre-incubated in the presence of LCAT and proteoliposomes
[6] = medium pre-incubated without LCAT and proteoliposomes

Molecule: CC(C)[C@@H](O)CC[C@@H](C)[C@H]1CC[C@H]2[C@@H]3CC=C4C[C@@H](O)CC[C@]4(C)[C@H]3CC[C@]12C [24(S)OH—CNE, cerebrosterol]
cells survived after incubation ([1]; 10 μM 24(S)OH-CNE): 58%
cells survived after incubation ([1]; 20 μM 24(S)OH-CNE): 43%

LCAT activity of esterification of 24(S)OH-CNE (mean±SD) (LCAT [2]): 12.77 ± 0.78 nmol/h/mL
Molecule: [NH-]c1c[n+](N2CCOCC2)no1 [SIN-1, 3-morpholino-sidnonimine]

3H-24(S)OH-CNE found esterified by LCAT (mean±SD) (LCAT [3]): 49.3±2.8%
Molecule: [3H]C(C([3H])[C@@H](C)[C@H]1CC[C@H]2[C@@H]3CC=C4C[C@@H](O)CC[C@]4(C)[C@H]3CC[C@]12C)[C@H](O)C(C)C (stereo partly drawn) [^3H-24(S)OH—CNE]
percentage of 3H-24(S)OH-CE in the cells [4, 5]: approximately 50%
3H-24(S)OH-CNE incorporated in the cultured cells [4, 5]: 6%
percentage of 3H-24(S)OH-CE in the cells [4, 6]: approximately 60%
3H-24(S)OH-CNE incorporated in the cultured cells [4, 6]: 14%

B1: LCAT: lecithin-cholesterol acyltransferase, E.C. 2.3.1.43; purified enzyme, used at 250 ng/mL (protein, UniProt P04180 25-440, looked up)
Phosphatidylcholine-sterol …: T1 sequence (P04180 25-440)
effect of LCAT treatment of the culture medium on the toxic effect of 24(S)OH-CNE on the cells ([1]; 20 μM 24(S)OH-CNE pre-incubated 5 h with LCAT and proteoliposomes, cells 5 h, then 16 h fresh medium, versus control treatment without LCAT): significantly reduced the toxic effect
